One assay deals with HSP 27. Put plainly: HSP 27 production in scratched (damaged) human gingival tissue, level in cell supernatant. It counts as cell-based. The conditions noted are these: for HSP27 concentration: scratched gingival tissue, arginine 50 ppm in culture medium, 37° C. On the procedure: A scratching protocol was used to damage and stress human gingival tissue (MatTek Corporation). Arginine, at a dose of 50 ppm was applied to the culture medium containing the tissue. The treated tissue was incubated at 37° C. to promote tissue healing. Cell supernatant was collected at various time points and the level of HSP 27 was measured.

A further assay relates to Human keratinocytes. The assay can be described thus: Gap closure after scratch, migration of human keratinocytes. The class given is cell-based. The conditions noted are these: 100 ppm Arginine in DMEM. On the procedure:
Human keratinocytes are cultured in DMEM medium supplemented with 10% FBS and 1% of antibiotic at 37° C. under a 5% CO2 atmosphere in petri dishes. Once the cells are 80-90% confluent, a scratch is made horizontally and a scratch is made vertically across the layer of cells. 1 ml of a test solution is added to the culture, and the cells are further incubated and monitored by photomicroscopy to evaluate the closure of the gap created by the scratches. The test solutions compared are 100 ppm Arginine in DMEM medium and untreated DMEM medium. The results are shown in Table 3 below, expressed as the average width of the gap as a percentage of the initial width of the gap (at 0 hours).
A second gap closure experiment is also performed which compares the results obtained when 100 ppm Arginine in DMEM is used against 1:500 v/v dilutions of commercial mouthwash formulations. In one test, a 0.8% w/v arginine mouthwash formulation is used. In a second test, a 0.075% w/v cetylpyridinium chloride (CPC) mouthwash formulation is used as a negative control. CPC is common antibacterial agent and preservative used in oral care products.

For a further assay, the system named is HSP-27. Put plainly: Intracellular HSP 27 expression in scratched keratinocytes (ELISA). It counts as cell-based, human. The conditions noted are these: for HSP-27, intracellular: scratched keratinocytes, 50 ppm Arginine. The procedure: Human keratinocytes are cultured in DMEM medium supplemented with 10% FBS and 1% of antibiotic at 37° C. under a 5% CO2 atmosphere in petri dishes. Once the cells are 80-90% confluent, a scratch is made horizontally and a scratch is made vertically across the layer of cells. […] […] The cell suspension is then homogenized with metal beads for 5 minutes and then analyzed for HSP27 using ELISA. In both untreated and arginine treated cells, scratching induces a strong increase in intracellular HSP-27 expression at one hour which declines at 4 hours. […] Without being bound by theory, Applicants believe that it is this initial burst of HSP-27 expression at the time of physical injury that contributes to improved wound healing.

Each structure is given as a SMILES string.

On to `N=C(N)NCCCC(N)C(=O)O` (stereo not shown) [Arginine, 2-amino-5-guanidinopentanoic acid], for which the “production of HSP 27 compared to the untreated, scratched tissue” value in the assay with HSP 27 (arginine 50 ppm, at 1 hour and at 4 hours) is on record as “significantly accelerated”. In addition, the HSP27 concentration in the assay on HSP 27 (incubation time 0 hr) was 22.78 ng/mL; in the assay on HSP 27 (incubation time 1 hr), 218.76 ng/mL; in the assay with HSP 27 (incubation time 4 hr), 359.72 ng/mL. Further, the “speed of gap closure compared to the DMEM control” value in the assay on Human keratinocytes is given as “significantly faster”. In addition, the “% Gap Closure” value came out at 21% with Human keratinocytes (24 hr after scratch); 63% in the assay with Human keratinocytes (48 hr after scratch); 100% in the assay with Human keratinocytes (144 hr after scratch); 75% in the assay on Human keratinocytes (second experiment, 48 hr). Further, the “intracellular HSP-27 expression compared to untreated scratched cells” value with HSP-27 (50 ppm arginine) is on record as “significantly higher expression”. Also, the “HSP-27, intracellular” value with HSP-27 (time 0 hr) turned out to be 17.11 ng/mL; with HSP-27 (time 1 hr), 64.04 ng/mL; in the assay on HSP-27 (time 2 hr as printed in the table), 45.12 ng/mL.

Values taken from US12465791B2, “Oral care composition” (Colgate-Palmolive Company, priority 2014, dated 2025).
